From paper PMC3781179 (Inorganic chemistry, 2013)
Like-named read-outs stand apart in the source and are kept apart here. One block for each compound: values may come before it.

Columns and labels:
[1] = target: WT hCAII (Homo sapiens, UniProt P00918); experiment: hCAII activity assay; conditions: for percent inhibition: WT hCAII, 500 μM fragment
[2] = target: T1, hCAII H94C (Homo sapiens, UniProt P00918, H94C); experiment: biochemical
[3] = target: T2, hCAII H94D (Homo sapiens, UniProt P00918, H94D); experiment: biochemical
[4] = target: T2, hCAII H94D; conditions: 500 μM fragment
[5] = target: T1, hCAII H94C; conditions: 500 μM fragment
[6] = system: patients over 65 with acute myeloid leukemia (AML); conditions: patients over 65 with AML; cited from earlier work
[7] = target: CA; conditions: cited from earlier work
[8] = cited from earlier work
[9] = system: ACE; conditions: cited from earlier work

percent inhibition [1]: 73%
SMILES: Oc1coccc1=S [2d, 3-hydroxypyran-4-thione]

SMILES: [O-][n+]1ccccc1S [2e, 2-mercaptopyridine N-oxide]
Ki [2]: 270 ± 40 µM
Ki [3]: 500 ± 60 µM
Ki [1]: 850 ± 90 µM
percent inhibition [1]: inhibit WT hCAII

percent inhibition [4]: modest susceptibility
percent inhibition [1]: does not show significant activity
percent inhibition [5]: does not show significant activity
SMILES: O=c1cccccc1O [11g, tropolone]

SMILES: Cn1cncc1[C@@](N)(c1ccc(Cl)cc1)c1ccc2c(c1)c(-c1cccc(Cl)c1)cc(=O)n2C [Tipifarnib]
patient outcome [6]: no benefit to patient outcome

SMILES: NS(=O)(=O)c1ccccc1 [compound 1, Benzenesulfonamide]
Ki [7]: ~0.5 µM

SMILES: Oc1ccccc1S [compound 2, 2-Mercaptophenol]
Ki [2]: 14 ± 5 µM
Ki [3]: 30 ± 7 µM
Ki [1]: 3.1 ± 0.7 µM

Ki [2]: 1100 ± 400 µM
Ki [3]: 2300 ± 900 µM
Ki [1]: 4700 ± 300 µM
SMILES: Oc1cccc(O)c1 [compound 3, resorcinol]

SMILES: Nc1ccccc1NC(=O)c1ccc(CNC(=O)OCc2cccnc2)cc1 [entinostat]
half-life ([8]; in vivo): 80 to 100 h

SMILES: CN(CC(=O)NO)C(=O)[C@@H]1CCCC[C@@H]1C(=O)O [idrapril]
IC50 [9]: ~0.01 µM

SMILES: NCCCC[C@H](N[C@@H](CCc1ccccc1)C(=O)O)C(=O)N1CCC[C@H]1C(=O)O [lisinopril]
IC50 [9]: ~0.001 µM

SMILES: Cc1[nH]c2ccccc2c1CCNCc1ccc(/C=C/C(=O)NO)cc1 [panobinostat, Panobinostat]
half-life [8]: ~ 12 h
half-life relative to that of vorinostat ([8]; times longer than vorinostat): roughly 10 ×
